Results as given in patent publication US7683090B2, “Treating agent for irritable bowel syndrome” (Astellas Pharma Inc., priority 2004, dated 2010).
Structures can show the parent of a compound that is named as a salt. Where two headings read alike, the source gives them in different places.

Assays:
[1] = system: male and female patients suffering from diarrhea-predominant irritable bowel syndrome (IBS); assay: Clinical study with patients suffering from diarrhea-predominant irritable bowel syndrome (Test Example 1); assay type: in vivo, human; conditions: for final monthly responder rate in the global assessment of relief of overall IBS symptoms: placebo group 26.9%
Experimental: Clinical study was carried out under the following condition using male and female patients suffering from diarrhea-predominant irritable bowel syndrome (IBS) as subjects.
Subjects: Patients suffering from diarrhea-predominant IBS in accordance with the Rome II Diagnosis Criteria (D. A. Drossman, et al., pages 351 to 432, ROME II: The functional Gastrointestinal Disorders, Second Edition, Degnon Associates, McLean, 2000).
Test drugs and Administration Methods: Placebo and ramosetron hydrochloride were orally administered for 12 weeks at 0.005 mg or 0.01 mg once daily.
Test Periods: Observation period for one week and treating period for 12 weeks
After transition to the treating period, the starting date for administration of the test drug was defined as the first day. Every week, global assessment of relief of overall IBS symptoms was evaluated taking all symptoms by IBS of the subjects into consideration, comparing with their state in the observation period, and this evaluation was recorded in a patient diary. Incidentally, scores for the global assessment of relief of overall IBS symptoms were as follows.
The subjects where the score was 0 or 1 for two weeks or more during the four weeks were made monthly responders and the monthly responder rate per month was calculated separately for each group of 0.005 mg and 0.01 mg of placebo and ramosetron hydrochloride.
After transition to the treating period, the starting date for administration of the test drug was defined as the first day. Every week, global assessment of relief of abdominal discomfort/pain by the test drug was evaluated with the state in the observation period and was recorded in a patient diary. Incidentally, scores for the global assessment of relief of abdominal discomfort/pain were as follows.
After transition to the treating period, the starting date for administration of the test drug was defined as the first day. Every week, global assessment of improvement of abnormal bowel habits was evaluated comparing with the state in the observation period, and was recorded in a patient diary. Incidentally, scores for the global assessment of improvement of abnormal bowel habits were as follows.
With regard to (1) to (3) for the subsidiary evaluation items, they were also subjected to calculations of monthly responder rate the same as those for the main evaluation items.

[2] = system: patients suffering from irritable bowel syndrome; assay: Former clinical studies, ramosetron hydrochloride administered twice daily to patients suffering from irritable bowel syndrome; assay type: in vivo, human
Description: The present inventors have carried out intensive investigations for the purpose of creation of novel treating agents for irritable bowel syndrome including non-constipated irritable bowel syndrome such as diarrhea-predominant irritable bowel syndrome and alternating constipation/diarrhea irritable bowel syndrome for which no sufficiently effective treating agent has been available.

[3] = system: patients suffering from non-constipated irritable bowel syndrome; conditions: 1 to 8 mg twice daily, cited from earlier work
[4] = 0.005 mg and 0.01 mg once daily, 12 weeks

Row | SMILES | difference in the responder rates between placebo group and ramosetron group: male versus female patients ([1]; 0.005 mg and 0.01 mg once daily) | final monthly responder rate in the global assessment of relief of abdominal discomfort/pain, better than the placebo group [1, 4] | final monthly responder rate in the global assessment of relief of abnormal bowel habits, better than the placebo group [1, 4] | therapeutic effect in patients suffering from diarrhea-predominant irritable bowel syndrome (conclusion) ([1]; 0.005 mg and 0.01 mg, administration once daily) | final monthly responder rate in the global assessment of relief of overall IBS symptoms ([1]; 0.005 mg orally once daily, 12 weeks, p 0.0273 to placebo) | final monthly responder rate in the global assessment of relief of overall IBS symptoms ([1]; 0.01 mg orally once daily, 12 weeks, p 0.0264 to placebo) | monthly responder rate (overall IBS symptoms) in excess of the responder rate in the placebo group ([1]; groups of 0.005 mg and 0.01 mg once daily, 12 weeks) | therapeutic effect as compared with placebo [2] | relief of pain and discomfort, stool consistency, bowel movement frequency and proportion of days with urgency, compared with placebo ([3]; female patients) | relief of pain and discomfort, stool consistency, bowel movement frequency and proportion of days with urgency, compared with placebo ([3]; male patients)
1 | Cn1cc(C(=O)[C@@H]2CCc3[nH]cnc3C2)c2ccccc21 [ramosetron hydrochloride, (−)-(R)-5-[(1-methyl-1H-indol-3-yl)carbonyl]-4,5,6,7-tetrahydro-1H-benzimidazole] | no difference was noted between male and female patients | more than 10% | more than 10% | effective for both males and females | 42.6% | 43.0% | more than 15% | significant therapeutic effect as compared with placebo was unable to be confirmed | – | –
2 | Cc1[nH]cnc1CN1CCc2c(c3ccccc3n2C)C1=O [alosetron] | – | – | – | – | – | – | – | – | significant improvement was noted in female patients | no significant improvement was noted as compared with placebo except stool consistency
